Measured values from patent publication US20210355104A1, “ADENOSINE RECEPTOR BINDING COMPOUNDS” (Nikang Therapeuticsm Inc., priority 2018, published 2021).
“And” between values parts separate entries of the source, which are not always exact repeats. Identical values can stand only once.

Target: Adenosine A2A receptor (Homo sapiens, UniProt P29274)
Assay: cAMP assay in 293A cells stably expressing the adenosine A2A receptor (CGS21680 stimulation, HTRF)
Type: cell-based
Design: expressed in transfected cells; host or cells: 293A cells (Invitrogen, Cat# R705-07) infected with A2A-expressing lentivirus (custom packaged by Biosettia), puromycin selected
Details: 293A-A2AR cells, 0.1% BSA, 1 uM CGS; read-out: cAMP (nM) 0.1% BSA, 1 uM CGS

Sequence of Adenosine A2A receptor (P29274 whole entry): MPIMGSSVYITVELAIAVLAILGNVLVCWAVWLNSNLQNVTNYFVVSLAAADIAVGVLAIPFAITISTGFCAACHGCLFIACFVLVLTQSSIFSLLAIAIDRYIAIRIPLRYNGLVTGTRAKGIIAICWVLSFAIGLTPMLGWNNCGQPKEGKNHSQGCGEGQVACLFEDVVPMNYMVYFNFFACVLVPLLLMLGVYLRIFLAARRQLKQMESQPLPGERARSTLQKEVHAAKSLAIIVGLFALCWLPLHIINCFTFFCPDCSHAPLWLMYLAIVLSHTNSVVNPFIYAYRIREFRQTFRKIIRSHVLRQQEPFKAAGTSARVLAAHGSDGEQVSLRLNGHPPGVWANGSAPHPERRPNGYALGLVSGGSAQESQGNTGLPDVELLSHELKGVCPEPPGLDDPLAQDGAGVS

SMILES	IC50
Cc1cc(-c2c(OCc3nc4ccc(C(C)(C)C(=O)O)cc4n3C)nc(N)nc2-c2ccc(F)cc2)cc(C(F)F)n1 [Example 368, 2-(2-(((2-amino-5-(2-(difluoromethyl)-6-methylpyridin-4-yl)-6-(4-fluorophenyl)pyrimidin-4-yl)oxy)methyl)-1-methyl-1H-benzo[d]imidazol-6-yl)-2-methylpropanoic acid]	> 25000 nM
Cc1cc(-c2c(OCc3nc4cc(C(C)(C)C(=O)O)ccc4n3C)nc(N)nc2-c2ccc(F)cc2)cc(C(F)F)n1 [Example 369, 2-(2-(((2-amino-5-(2-(difluoromethyl)-6-methylpyridin-4-yl)-6-(4-fluorophenyl)pyrimidin-4-yl)oxy)methyl)-1-methyl-1H-benzo[d]imidazol-5-yl)-2-methylpropanoic acid]	> 25000 nM
Cc1cc(-c2c(OCCN(C)c3nccc(C(C)(C)C#N)n3)nc(N)nc2-c2ccc(F)cc2)cc(C(F)F)n1 [Example 372, 2-(2-((2-((2-amino-5-(2-(difluoromethyl)-6-methylpyridin-4-yl)-6-(4-fluorophenyl)pyrimidin-4-yl)oxy)ethyl)(methyl)amino)pyrimidin-4-yl)-2-methylpropanenitrile]	128 nM and 130 nM and 160 nM
Cc1cc(-c2c(OCc3nc4nc(C(C)(C)C(=O)O)ccc4n3C)nc(N)nc2-c2ccc(F)cc2)cc(C(F)F)n1 [Example 374, 2-(2-(((2-amino-5-(2-(difluoromethyl)-6-methylpyridin-4-yl)-6-(4-fluorophenyl)pyrimidin-4-yl)oxy)methyl)-1-methyl-1H-imidazo[4,5-b]pyridin-5-yl)-2-methylpropanoic acid]	> 25000 nM
Cc1cc(-c2c(OCc3ccc(F)c(C(C)(C)C(=O)O)n3)nc(N)nc2-c2ccc(F)cc2)cc(C(F)F)n1 [Example 375, 2-(6-(((2-amino-5-(2-(difluoromethyl)-6-methylpyridin-4-yl)-6-(4-fluorophenyl)pyrimidin-4-yl)oxy)methyl)-3-fluoropyridin-2-yl)-2-methylpropanoic acid]	17600 nM and 23300 nM
Cc1cc(-c2c(OCc3cccc(N)n3)nc(N)nc2-c2ccc(F)cc2)cc(C(F)F)n1 [Example 376]	133 nM and 209 nM and 375 nM and 142 nM and 48 nM

More lines, now with the values ahead:

IC50	SMILES
1690 nM	Cc1cc(-c2c(OCc3nc(C(C)(C)O)cs3)nc(N)nc2-c2ccc(F)cc2)cc(C(F)F)n1 [Example 366, 2-(2-(((2-amino-5-(2-(difluoromethyl)-6-methylpyridin-4-yl)-6-(4-fluorophenyl)pyrimidin-4-yl)oxy)methyl)thiazol-4-yl)propan-2-ol]
11800 nM	Cc1cc(-c2c(OCc3ccc(F)c(C(C)(C)C(=O)O)c3)nc(N)nc2-c2ccc(F)cc2)cc(C(F)F)n1 [Example 367, 2-(5-(((2-amino-5-(2-(difluoromethyl)-6-methylpyridin-4-yl)-6-(4-fluorophenyl)pyrimidin-4-yl)oxy)methyl)-2-fluorophenyl)-2-methylpropanoic acid]
5430 nM	Cc1cc(-c2c(OCc3cccc(C(C)(C)C(=O)O)c3F)nc(N)nc2-c2ccc(F)cc2)cc(C(F)F)n1 [Example 370, 2-(3-(((2-amino-5-(2-(difluoromethyl)-6-methylpyridin-4-yl)-6-(4-fluorophenyl)pyrimidin-4-yl)oxy)methyl)-2-fluorophenyl)-2-methylpropanoic acid]
2360 nM	Cc1cc(-c2c(OCc3ncc(C(C)(C)O)s3)nc(N)nc2-c2ccc(F)cc2)cc(C(F)F)n1 [Example 371, 2-(2-(((2-amino-5-(2-(difluoromethyl)-6-methylpyridin-4-yl)-6-(4-fluorophenyl)pyrimidin-4-yl)oxy)methyl)thiazol-5-yl)propan-2-ol]
21100 nM	Cc1cc(-c2c(OCc3ccc(C)c(C(C)(C)C(=O)O)n3)nc(N)nc2-c2ccc(F)cc2)cc(C(F)F)n1 [Example 377, 2-(6-(((2-amino-5-(2-(difluoromethyl)-6-methylpyridin-4-yl)-6-(4-fluorophenyl)pyrimidin-4-yl)oxy)methyl)-3-methylpyridin-2-yl)-2-methylpropanoic acid]
